Measured values: patent US7270966B2, “Human pyrimidine receptor” (Euroscreen SA, priority 1995, dated 2007)
Like-named read-outs stand apart in the source and are kept apart here. Each block holds one compound with its values, some of them ahead of it.

Assays:
human P2Y4 receptor [1] = target: T1, human P2Y4 receptor (Homo sapiens, UniProt P51582); assay: InsP3 accumulation in 1321N1 cells expressing the human P2Y4 receptor; type: cell-based; conditions: for effect per se on InsP3 production: agonist alone; for agonist effect on InsP3 at 30 s: 30 s incubation, 100 μM; for functional response (IP3 accumulation) in pool of G418-resistant clones: pool of transfected 1321N1 clones
T1 construct: expressed in transfected cells; host or cells: 1321N1 human astrocytoma cells, G418-selected clone, pcDNA3-P2Y4
T1 sequence (P51582 whole entry): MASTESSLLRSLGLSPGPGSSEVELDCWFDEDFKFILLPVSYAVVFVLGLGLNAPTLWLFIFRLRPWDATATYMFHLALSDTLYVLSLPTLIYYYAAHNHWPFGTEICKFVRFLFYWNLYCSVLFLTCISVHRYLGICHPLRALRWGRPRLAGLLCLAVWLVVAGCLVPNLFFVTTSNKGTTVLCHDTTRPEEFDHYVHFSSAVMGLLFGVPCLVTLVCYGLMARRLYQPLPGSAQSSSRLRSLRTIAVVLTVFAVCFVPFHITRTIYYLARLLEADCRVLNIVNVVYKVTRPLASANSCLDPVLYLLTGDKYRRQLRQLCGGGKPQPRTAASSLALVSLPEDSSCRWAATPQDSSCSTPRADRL
Protocol: Cells were transfected with the recombinant pcDNA3 plasmid (pcDNA3-P2Y4) using the calcium phosphate precipitation method as described (16). 1321N1 cells were incubated for 6 hours at 37° C. in the presence of pcDNA3 vector alone or vector containing the P2Y4 receptor coding sequence, then washed and incubated in culture medium (10% FCS, 100 U/ml penicillin, 100 μ/ml streptomycin and 2.5 μg/ml amphotericin B in Dulbecco's modified Eagle's medium (DMEM)). The selection with G418 (400 μg/ml) was started two days after transfection. From the pool of transfected 1321N1 cells, individual clones were isolated by limiting dilution with the aim of selecting clones with high IP stimulation factors in response to nucleotides. The different clones were maintained in a medium containing 400 μg/ml G418.
(§1) 1321N1 cells were labeled for 24 hours with 10 μCi/ml [^3H] inositol in inositol-free DMEM (Dulbecco's modified Eagle's medium) medium containing 5% fetal calf serum, 100 U/ml penicillin, 100 μg/ml streptomycin, 2.5 μg/ml amphotericin B and 400 μg/ml G418. Cells were washed twice with KRH (Krebs-Ringer Hepes) buffer of the following composition: (124 mM NaCl, 5 mM KCl, 1.25 mM MgSC4, 1.45 mM CaCl2, 25 mM Hepes (pH 7.4) and 8 mM glucose) and incubated in this medium for 30 min The agonists were added in the presence of LiCl (10 mM) and the incubation was stopped after 30 s, 5 min or 20 min by the addition of an ice-cold 3% perchloric acid solution. For the time course study, LiCl (10 mM) was added 5 min before the agonists and the incubation was stopped at different times. When tested, pertussis toxin (20 ng/ml) was added for 18 h during the labeling period time and during the stimulation by the agonist. Inositol phosphates were extracted and InsP3 was isolated by chromatography on Dowex column as described previously (17).

human P2Y4 receptor [2] = target: T1, human P2Y4 receptor; assay: Radioligand binding of [α32P]UTP to membranes of P2Y4-transfected 1321N1 clones; conditions: clones 2, 11 and 21; 0.5 nM radioligand; data not shown
Protocol: Binding assays of [α^32P] UTP to cell membranes were carried out in Tris-HCl (50 mM, pH 7.5), EDTA 1 mM in a final volume of 0.5 ml, containing 25-50 μg of protein and 0.5 nM of radioligand (27). The assays were conducted at 30° C. for 5 min. Incubations were stopped by the addition of 4 ml of ice-cold Tris-HCl (50 mM, pH 7.5) and rapid filtration through Whatman GF/B filters under reduced pressure. The filters were then washed three times with 2 ml of the same ice-cold Tris-HCl buffer. Radioactivity was quantified by liquid scintillation counting, after an overnight incubation of the filters in liquid scintillation mixture.

[3] = tested on: muscarinic receptors endogenously expressed in the 1321N1 cells; assay: Action of carbachol (InsP3) via muscarinic receptors endogenously expressed in 1321N1 cells; type: cell-based, human; conditions: cells transfected with P2Y4-pcDNA3 or vector alone
Protocol: as §1
The maximal effect of ATP observed after a 20 min incubation represented about 27±9% of that of UTP (mean±S.D. of ten experiments). […] The ATP concentration-inhibition curves were shifted to the right when the UTP concentration was increased, indicating the competitive nature of this inhibitory effect (panels A and B). On the other hand, at lower concentrations (30-300 μM), ATP enhanced the response to UTP by 29% (range 12-47%, mean of four experiments) (panel B). […] This observation was reproduced with cells transfected with the recombinant P2Y4-pcDNA3 plasmid or with the vector alone and was also obtained with AMP and adenosine (data not shown).

[4] = 20 min incubation, 10 mM LiCl, read-out: EC50 InsP3 accumulation, full concentration-action curves
[5] = antagonist 100 μM, UTP 2 and 10 μM, 20 min
[6] = clone 2, 20 min incubation, 10 mM LiCl, read-out: EC50 InsP3 production
[7] = clone 11, 20 min incubation, 10 mM LiCl, read-out: EC50 InsP3 production
[8] = clone 21, 20 min incubation, 10 mM LiCl, read-out: EC50 InsP3 production

- effect per se on InsP3 production (human P2Y4 receptor [1]; data not shown): without any effect
Compound: O=c1ccn([C@@H]2O[C@H](COP(=O)(O)O)[C@@H](O)[C@H]2O)c(=O)[nH]1 [UMP]

- specific binding versus cells transfected with the vector alone (human P2Y4 receptor [2]): no increase in specific binding
Compound: O=c1ccn(C2OC(CO[32P](=O)(O)OP(=O)(O)OP(=O)(O)O)C(O)C2O)c(=O)[nH]1 (stereo not drawn) [[α^32P] UTP]

- agonist effect on InsP3 at 30 s (human P2Y4 receptor [1]): barely or not active
- EC50 (human P2Y4 receptor [1]; [4]): 20 ± 2.3 µM
Compound: O=c1ccn([C@H]2C[C@H](O)[C@@H](COP(=O)(O)OP(=O)(O)OP(=O)(O)O)O2)c(=O)[nH]1 [dUTP]

- inhibition of the UTP response by antagonist (human P2Y4 receptor [1]; [5]): 73±14%
- IC50 (human P2Y4 receptor [1]; data not shown, read-out: IC50 for inhibition of the UTP response): ~15 µM
Compound: Cc1nc(N=Nc2ccc(S(=O)(=O)O)cc2S(=O)(=O)O)c(COP(=O)(O)O)c(C=O)c1O [PPADS]

- agonist effect on InsP3 at 30 s (human P2Y4 receptor [1]): barely or not active
- EC50 (human P2Y4 receptor [1]; [4]): 19.5 ± 3.9 µM
- EC50 (human P2Y4 receptor [1]; [6]): 3.3 ± 0.6 µM
- EC50 (human P2Y4 receptor [1]; [7]): 19.8 ± 4.8 µM
- EC50 (human P2Y4 receptor [1]; [8]): 3.2 ± 0.8 µM
Compound: O=c1ccn([C@@H]2O[C@H](COP(=O)(O)OP(=O)(O)O)[C@@H](O)[C@H]2O)c(=O)[nH]1 [UDP]

- effect per se on InsP3 production (human P2Y4 receptor [1]; data not shown): without any effect
Compound: Nc1ncnc2c1ncn2[C@@H]1O[C@H](COP(=O)(O)O)[C@@H](O)[C@H]1O [AMP]
- effect on the action of carbachol [3]: increased

- agonist effect on InsP3 at 30 s (human P2Y4 receptor [1]): barely or not active
- EC50 (human P2Y4 receptor [1]; [4]): 32.8 ± 5.4 µM
Compound: O=c1[nH]cnc2c1ncn2[C@@H]1O[C@H](COP(=O)(O)OP(=O)(O)OP(=O)(O)O)[C@@H](O)[C@H]1O [ITP]

Further lines, the compound ahead of its results:

Compound: Nc1c(S(=O)(=O)O)cc(Nc2ccc(Nc3nc(Cl)nc(Nc4cccc(S(=O)(=O)O)c4)n3)c(S(=O)(=O)O)c2)c2c1C(=O)c1ccccc1C2=O [RB-2, reactive blue 2]
- inhibition of the UTP response by antagonist (human P2Y4 receptor [1]): 33±5%

Compound: pertussis toxin
- inhibition of the UTP response by pertussis toxin (human P2Y4 receptor [1]; 20 ng/ml, 18 hours pretreatment, UTP 100 μM, 30 s): 62±5%
- effect of pertussis toxin on the UTP response (human P2Y4 receptor [1]; 20 ng/ml, 18 hours pretreatment, UTP 100 μM, 5 min): no significant effect
- effect of pertussis toxin on the UTP response (human P2Y4 receptor [1]; 20 ng/ml, 18 hours pretreatment, UTP 100 μM, 20 min): no significant effect

Compound: Nc1ncnc2c1ncn2[C@@H]1O[C@H](COP(=O)(O)OP(=O)(O)OP(=O)(O)O)[C@@H](O)[C@H]1O [ATP]
- agonist effect on InsP3 at 30 s (human P2Y4 receptor [1]): no effect
- EC50 (human P2Y4 receptor [1]; [4]): ~43 µM
- maximal effect relative to that of UTP (human P2Y4 receptor [1]; 20 min incubation, % of UTP maximal effect): about 27±9%
- enhancement of the response to UTP (human P2Y4 receptor [1]; ATP 30-300 μM, 20 min): 29%
- antagonism of the response to UTP (human P2Y4 receptor [1]; UTP 10 μM, ATP 2 mM, 30 s): fully antagonized
- inhibition of the UTP effect (human P2Y4 receptor [1]; UTP 10 μM, ATP 2 mM, 20 min): 62±11%
- ATP concentration able to inhibit the effect of UTP (human P2Y4 receptor [1]; both at 30 s and 20 min): ≥ 500 µM
- functional response (IP3 accumulation) in pool of G418-resistant clones (human P2Y4 receptor [1]): agonists
- effect on the action of carbachol [3]: increased

Compound: Cc1ccc(C(=O)Nc2ccc(S(=O)(=O)O)c3cc(S(=O)(=O)O)cc(S(=O)(=O)O)c23)cc1NC(=O)c1cccc(NC(=O)Nc2cccc(C(=O)Nc3cc(C(=O)Nc4ccc(S(=O)(=O)O)c5cc(S(=O)(=O)O)cc(S(=O)(=O)O)c45)ccc3C)c2)c1 [suramin]
- inhibition of the UTP response by antagonist (human P2Y4 receptor [1]; [5]): inactive

Compound: Nc1ncnc2c1ncn2[C@@H]1O[C@H](COP(=O)(O)OP(=O)(O)O)[C@@H](O)[C@H]1O [ADP]
- inhibition of the action of UTP (qualitative) (human P2Y4 receptor [1]): did not inhibit
- stimulation by UTP in presence of ADP, relative to UTP alone (human P2Y4 receptor [1]; ADP 100 μM, UTP 10 μM): 158±15%
- effect per se on InsP3 production (human P2Y4 receptor [1]; data not shown): almost no effect
- effect on the action of carbachol [3]: increased

Compound: O=c1ccn([C@@H]2O[C@H](CO)[C@@H](O)[C@H]2O)c(=O)[nH]1 [uridine]
- effect per se on InsP3 production (human P2Y4 receptor [1]; data not shown): without any effect

Compound: Nc1ncnc2c1ncn2[C@@H]1O[C@H](CO)[C@@H](O)[C@H]1O [adenosine]
- effect per se on InsP3 production (human P2Y4 receptor [1]; data not shown): without any effect
- effect on the action of carbachol [3]: increased

Compound: O=c1[nH]c(=O)n([C@@H]2O[C@H](COP(=O)(O)OP(=O)(O)OP(=O)(O)O)[C@@H](O)[C@H]2O)cc1Br [5BrUTP]
- agonist effect on InsP3 at 30 s (human P2Y4 receptor [1]): barely or not active
- EC50 (human P2Y4 receptor [1]; [4]): 27.1 ± 1.9 µM

Compound: Nc1ncnc2c1ncn2[C@@H]1O[C@H](COP(=O)(O)OP(=O)(O)OP(O)(O)=S)[C@@H](O)[C@H]1O [ATPyS]
- effect per se on InsP3 production (human P2Y4 receptor [1]; data not shown): without any effect

Compound: O=c1ccn([C@@H]2O[C@H](COP(=O)(O)OP(=O)(O)OP(=O)(O)O)[C@@H](O)[C@H]2O)c(=O)[nH]1 [UTP, uridine triphosphate]
- EC50 (human P2Y4 receptor [1]; 20 min, 100 μM PPADS, read-out: EC50 value for UTP in the presence of PPADS): 12.2 ± 4.5 µM
- EC50 (human P2Y4 receptor [1]; 20 min, no PPADS, read-out: EC50 value for UTP in the absence of PPADS): 3.3 ± 0.6 µM
- EC50 (human P2Y4 receptor [1]; [4]): 2.5 ± 0.6 µM
- EC50 (human P2Y4 receptor [1]; [6]): 0.3 ± 0.1 µM
- potency of UTP relative to UDP (human P2Y4 receptor [1]; clone 11, 20 min incubation): 10 fold
- EC50 (human P2Y4 receptor [1]; [7]): 2.4 ± 0.1 µM
- EC50 (human P2Y4 receptor [1]; [8]): 0.3 ± 0.1 µM
- functional response (IP3 accumulation) in pool of G418-resistant clones (human P2Y4 receptor [1]): agonists
